This passage reports Eye irritation classification and Skin irritation classification results from US20240225981A1, “Synthesized Molecule of Solketal Esters from Palm Kit Oil and Glycerin for Cosmetic and Agricultural Formulations” (BRASIL BIO FUELS S.A, priority 2023, published 2024).

The test system of one data set is eye. Kind of data set: Eye irritation tests (OECD and GHS). It counts as in vivo. Particulars: OECD and GHS standards. The source says:
In eye irritation tests, the product was classified as non-irritating according to OECD and GHS standards.

Another data set concerns skin. Kind of data set: Skin irritation tests (OECD and GHS). It counts as in vivo. As to conditions: OECD and GHS standards; non-irritating in 2 tests, one test mild. The source says:
Two new batches of cocoyl glyceryl solketal were sent to confirm dermal irritation tests.

Entries after “also recorded” stand apart in the source; their conditions may differ.

For Cocoyl glyceryl solketal, the Eye irritation classification result in the data set on eye is recorded as “non-irritating”. Moreover, the Skin irritation classification entry in the data set with skin is reported as “non-irritating; also recorded: mild dermal irritation”.
